Data reported in patent publication US8008346B2, “Chemotherapeutic agents for inhibition of protein translation” (The Royal University for the Advancement of Learning/McGill …, priority 2006, dated 2011).

Legend:
HeLa cells = assay: 35S-methionine incorporation (protein synthesis) in HeLa cells; format: cell-based
Description: FIG. 4. Effect of hippuristanol on protein, RNA and DNA synthesis in cells. A. Relative rate of ^35S-methionine incorporation as a function of hippuristanol concentration in HeLa cells. Cells were exposed to the indicated concentration of compound for 50 min., followed by a 10 min. labeling period with ^35S-methionine in the presence of compound. The rate of protein synthesis (TCA precipitable cpm) obtained in the presence of compound was normalized to the rate obtained in the presence of DMSO (which was set at 1). The rate of protein synthesis in the control reactions (containing DMSO vehicle) averaged ˜700,000 cpm/10 min. labeling period. Results are shown for two experiments and the error of the mean is presented. The relative rate of ^35S-methionine incorporation in HeLa cells exposed to 10 μM anisomycin (positive control) for 60 min. was ˜0.02 (data not shown). B. Effect of hippuristanol on protein (gray circles), DNA (open squares), and RNA (solid squares) synthesis in HeLa cells. The rate of macromolecular synthesis (TCA precipitable cpm for a 10 min. labeling period) obtained in the presence of 1 μM hippuristanol was normalized to the rate obtained in the presence of DMSO and is plotted. The results are shown for two experiments and the error of the mean is presented. The rate of protein, RNA and DNA synthesis in the control reactions (containing DMSO vehicle) averaged ˜900,000 cpm/10 min, ˜16,000 cpm/10 min. and 7,000 cpm/10 min labeling, respectively. The relative rate of ^35S-methionine incorporation by HeLa cells exposed to 10 μM anisomycin for 60 min. (positive control for inhibition of protein synthesis) was 0.02 (data not shown). The relative rate of ^3H-uridine incorporation by HeLa cells exposed to 50 μM actinomycin (positive control for inhibition of RNA synthesis) for 60 min. was 0.01 (data not shown). C. […] Gradients were analyzed by piercing the tube with a Brandel tube piercer, passing 60% sucrose through the bottom of the tube, and monitoring the absorbance of the material eluting from the tube using an ISCO UA-6 UV Detector.

eIF4Ac and eIF4B = target: T1, eIF4Ac and eIF4B (Homo sapiens, UniProt P60842); assay: Chemical crosslinking of initiation factors to 32P cap-labeled mRNA; format: binding; conditions: 50 μM, in presence of ATP
T1 construct: Chemical crosslinking of initiation factor preparations to ^32P cap-labeled oxidized CAT mRNA
Description: FIG. 6. Hippuristanol inhibits translation initiation. A. Hippuristanol inhibits 80S complex formation. ^32P-labeled CAT mRNA was incubated in rabbit reticulocyte lysate with cycloheximide (CHX) in the presence or absence of 50 μM hippuristanol. Complexes were resolved on glycerol gradients. Total counts recovered from each gradient and the percent mRNA bound in 80S complexes were: CAT mRNA/CHX [43,498 cpm, 22% binding] and CAT mRNA/CHX+Hipp. [45,279 cpm, 5.7% binding]. B. Hippuristanol inhibits crosslinking of eIF4Ac and eIF4B to capped mRNA. Initiation factors were chemically crosslinked to ^32P cap-labeled mRNA in the absence (lane 2) or presence of ATP (lanes 1, 3-6), 0.6 mM m^7GDP (lane 3), 0.6 mM GDP (lane 4), or 50 μM hippuristanol (lane 6). Following nuclease digestion, samples were resolved by SDS-PAGE and the gel subjected to autoradiography.
Ribosome Binding and mRNA Crosslinking. Ribosome binding assays were performed by incubating ^32P-labelled CAT mRNA in rabbit reticulocyte lysate or wheat germ extracts in the presence of: 600 μM cycloheximide (CHX), 1 mM GMP-PNP, and/or 50 μM hippuristanol or vehicle for 10 min (33). […] Fractions of 500 μl were collected and radioactivity was determined by scintillation counting. […]

eIF4Ac = eIF4Ac (Homo sapiens, UniProt P60842); assay: Crosslinking of oxidized 32P-cap labeled CAT mRNA to native eIF4F (RNA binding); conditions: 50 μM, 0.7 μg native eIF4F
Description: FIG. 7. Effects of hippuristanol on ATP hydrolysis, ATP binding, and RNA binding activities of eIF4A. A. Hippuristanol inhibits eIF4AIf RNA-dependent ATPase activity. The rate of ATP hydrolysis as a function of hippuristanol concentration is plotted relative to the rate obtained in the presence of vehicle (0.5% DMSO). ATP hydrolysis was measured in the presence of 2.5 μM poly (U) and monitored by thin layer chromatography. […] Samples were resolved by SDS-PAGE and subjected to autoradiography. C. The RNA binding activity of eIF4AIf is inhibited by hippuristanol. Oxidized ^32P-cap labeled CAT mRNA was incubated with recombinant eIF4AIf in the absence (lane 2) or presence of ATP (lanes 1, 3-6), 0.6 mM m^7GDP (lane 3), 0.6 mM GDP (lane 4), or 50 μM hippuristanol (lane 6). Following treatment with RNase A, samples were resolved by SDS-PAGE and subjected to autoradiography. The asterisk denotes the position of migration of a ˜30 kDa contaminant in the recombinant eIF4AIf preparation used as an internal loading reference. D. The RNA binding activity of eIF4Ac is inhibited by hippuristanol. Oxidized ^32P-cap labeled CAT mRNA was incubated with 0.7 μg of native eIF4F in the absence (lane 1) or presence (lane 2) of 50 μM hippuristanol. […]
Ribosome Binding and mRNA Crosslinking. […] Fractions of 500 μl were collected and radioactivity was determined by scintillation counting. […]

T1 sequence (P60842 whole entry): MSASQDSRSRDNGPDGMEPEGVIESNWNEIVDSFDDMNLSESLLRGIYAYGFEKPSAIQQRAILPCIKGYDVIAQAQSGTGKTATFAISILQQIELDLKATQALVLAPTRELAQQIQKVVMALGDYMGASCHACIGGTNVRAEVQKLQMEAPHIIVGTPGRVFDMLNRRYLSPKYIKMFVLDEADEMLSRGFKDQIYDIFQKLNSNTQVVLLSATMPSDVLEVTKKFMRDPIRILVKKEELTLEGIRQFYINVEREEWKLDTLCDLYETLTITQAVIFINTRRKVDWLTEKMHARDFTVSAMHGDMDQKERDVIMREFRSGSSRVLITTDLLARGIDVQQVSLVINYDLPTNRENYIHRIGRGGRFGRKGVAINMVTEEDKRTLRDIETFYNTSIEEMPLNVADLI
T1 sequence (Q04637 whole entry partner): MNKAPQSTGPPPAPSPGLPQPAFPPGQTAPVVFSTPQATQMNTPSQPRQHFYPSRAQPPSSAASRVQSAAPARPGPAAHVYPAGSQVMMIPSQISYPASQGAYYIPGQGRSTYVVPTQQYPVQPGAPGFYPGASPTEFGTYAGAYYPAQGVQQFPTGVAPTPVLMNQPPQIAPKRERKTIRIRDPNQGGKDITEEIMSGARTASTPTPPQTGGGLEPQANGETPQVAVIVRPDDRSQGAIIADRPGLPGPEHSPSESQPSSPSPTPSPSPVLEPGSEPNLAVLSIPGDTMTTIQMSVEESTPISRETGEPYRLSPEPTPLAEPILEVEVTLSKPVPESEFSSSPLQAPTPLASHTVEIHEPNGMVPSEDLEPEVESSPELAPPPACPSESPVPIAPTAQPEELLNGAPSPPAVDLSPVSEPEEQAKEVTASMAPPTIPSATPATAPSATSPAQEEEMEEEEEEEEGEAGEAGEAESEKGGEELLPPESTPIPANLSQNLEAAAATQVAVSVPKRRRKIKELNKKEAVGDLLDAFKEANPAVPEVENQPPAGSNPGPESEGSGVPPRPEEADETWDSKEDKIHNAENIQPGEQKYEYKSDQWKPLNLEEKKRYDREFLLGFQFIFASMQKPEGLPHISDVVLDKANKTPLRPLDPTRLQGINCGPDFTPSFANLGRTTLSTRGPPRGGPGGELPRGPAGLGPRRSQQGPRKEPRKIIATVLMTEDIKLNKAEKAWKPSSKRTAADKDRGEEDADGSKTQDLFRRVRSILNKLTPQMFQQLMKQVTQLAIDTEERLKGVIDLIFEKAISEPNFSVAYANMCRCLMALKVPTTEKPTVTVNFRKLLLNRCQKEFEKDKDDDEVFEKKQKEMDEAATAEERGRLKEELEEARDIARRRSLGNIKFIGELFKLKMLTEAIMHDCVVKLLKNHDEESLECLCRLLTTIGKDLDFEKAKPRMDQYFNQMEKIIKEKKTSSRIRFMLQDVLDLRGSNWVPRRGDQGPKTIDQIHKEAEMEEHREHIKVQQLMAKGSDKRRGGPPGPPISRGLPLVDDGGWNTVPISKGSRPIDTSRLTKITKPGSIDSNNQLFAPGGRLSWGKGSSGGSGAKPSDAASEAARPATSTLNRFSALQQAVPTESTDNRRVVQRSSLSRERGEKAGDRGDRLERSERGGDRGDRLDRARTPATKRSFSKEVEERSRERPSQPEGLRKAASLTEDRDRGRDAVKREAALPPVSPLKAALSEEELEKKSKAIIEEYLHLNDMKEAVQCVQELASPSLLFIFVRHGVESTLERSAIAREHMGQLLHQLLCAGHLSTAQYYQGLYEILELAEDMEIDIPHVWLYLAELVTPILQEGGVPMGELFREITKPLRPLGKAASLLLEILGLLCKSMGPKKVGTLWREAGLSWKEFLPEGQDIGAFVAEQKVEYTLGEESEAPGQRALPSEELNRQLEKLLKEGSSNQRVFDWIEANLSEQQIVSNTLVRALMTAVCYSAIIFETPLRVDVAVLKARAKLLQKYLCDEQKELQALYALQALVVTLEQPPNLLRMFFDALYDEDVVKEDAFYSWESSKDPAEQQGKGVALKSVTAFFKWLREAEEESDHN
T1 sequence (P06730 whole entry partner): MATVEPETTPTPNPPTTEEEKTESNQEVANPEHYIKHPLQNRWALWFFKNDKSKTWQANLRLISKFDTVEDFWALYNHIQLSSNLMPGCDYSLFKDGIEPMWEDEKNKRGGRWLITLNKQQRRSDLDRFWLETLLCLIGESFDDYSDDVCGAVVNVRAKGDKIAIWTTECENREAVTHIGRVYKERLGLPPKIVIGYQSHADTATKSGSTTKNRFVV
eIF4Ac, sequence (P60842 whole entry): as the sequence (P60842 whole entry) above
eIF4Ac, sequence (P06730 whole entry partner): as the sequence (P06730 whole entry partner) above
eIF4Ac, sequence (Q04637 whole entry partner): as the sequence (Q04637 whole entry partner) above

With C[C@H]1C[C@@]2(O[C@H]3C[C@H]4[C@@H]5CC[C@H]6C[C@H](O)CC[C@]6(C)[C@H]5[C@@H](O)C[C@]4(C)[C@H]3[C@@]2(C)O)OC1(C)C [Hippuristanol, hippuristanol] the “eukaryotic protein synthesis (35S-methionine incorporation)” value (HeLa cells; FIG. 4) was “inhibits”, the “reversibility of the inhibitory effect on protein synthesis” value (HeLa cells; HeLa cells, 1 μM for 60 min, then compound washed off) was “reversible” and the “crosslinking of eIF4Ac and eIF4B to capped mRNA” value (eIF4Ac and eIF4B) was “inhibits”. The “RNA binding activity of eIF4Ac” value (eIF4Ac) was “inhibited”.
